Source: US20200339691A1, “PROTEINACEOUS MOLECULES AND USES THEREFOR” (priority 2018, published 2020)
Where a SMILES comes first, the peptide text is derived from it. The star is where a group is joined. Myristoyl = CCCCCCCCCCCCCC(=O)*

Key:
Type in all cases: cell-based, human
Details in all cases: 50 μM, 72 hours
5-methylcytosine = test: Immunofluorescence of 5-methylcytosine in MDA-MB-231 cells
Description: (§1) 1×10^4 MDA-MB-231 cells were seeded onto coverslips in 12 well plates with DMEM media. Cells were treated with 50 μM P1, P2, P3 or P4 (synthesized in accordance with Example 5) or vehicle (water) for 72 hours. Cells were fixed with 3.7% formaldehyde and permeabilized with 2% Triton-X-100, then probed with primary mouse antibodies to CSV, DMNT1, H3K9me3 or 5-methylcytosine; primary goat antibodies to SNAI1, SETDB1 or ABCB5; or primary rabbit antibodies to PD-L1, EGFR, EHMT2; followed by the corresponding secondary antibody conjugated to anti-mouse Alexa-Fluor 568, anti-goat Alexa-Fluor 633 or anti-rabbit Alexa-Fluor 488. Confocal laser scanning microscopy was used to measure the TFI, TNFI and TCFI as described above. At least 20 individual cells were analyzed per sample.

H3K9me3 = test: Immunofluorescence of H3K9me3 in MDA-MB-231 cells
Description: as §1

ABCBS = test: Immunofluorescence of ABCBS in MDA-MB-231 cells
Description: as §1

CCCCCCCCCCCCCC(=O)N[C@@H](CC(C)C)C(=O)N[C@H](C(=O)N[C@@H](Cc1ccccc1)C(=O)N[C@H](C(=O)N[C@@H](Cc1ccccc1)C(=O)N[C@@H](CCCNC(=N)N)C(=O)N[C@@H](CC(C)C)C(=O)N[C@@H](CCCNC(=N)N)C(=O)N[C@@H](CCCCNC(C)=O)C(=O)NCC(=O)N[C@@H](CCCNC(=N)N)C(=O)N[C@@H](CCSC)C(=O)N[C@@H](CCSC)C(=O)N[C@@H](CC(=O)O)C(=O)N[C@H](C(=O)N[C@@H](CCCCN)C(=O)N[C@@H](CCCCN)C(N)=O)C(C)C)[C@@H](C)CC)[C@@H](C)O [Peptide P3, Myristoyl-LTFIFRLRK(Ac)GRMMDVKK-NH2] (Myristoyl-LTFIFRLRK(Ac)GRMMDVKK-NH2)
strongly inhibited: expression of 5-methylcytosine (5-methylcytosine) | expression of H3K9me3 (H3K9me3) | expression of ABCBS (ABCBS)
